Experimental data as given in patent publication US12685726B2, “Sulfoximines as inhibitors of NaV1.8” (Gruenenthal GmbH, priority 2022, dated 2026).

Molecular target: T1, human NaV 1.8 (Homo sapiens, UniProt Q9Y5Y9)
T1 construct: expressed in transfected cells; host or cells: HEK (recombinant cell line)
Assay: Automated whole-cell patch clamp (Qube384) voltage-clamp recordings of sodium currents in HEK-NaV1.8 cell line
Assay type: cell-based
Conditions: read-out: Potency category (human NaV 1.8 IC50)
Outline: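 HEK cells expressing NaV1.8 with b3, whole-cell automated voltage clamp at room temperature or 19° C.; CsF-based internal, pH 7.4 external. State-dependent (−120 mV, V1/2 4 s, −10 mV test pulses) and 10/20 Hz 40-pulse protocols; ~12 min compound, vehicle-corrected, IC50 by 4-parameter logistic fit.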

T1 sequence (Q9Y5Y9 whole entry): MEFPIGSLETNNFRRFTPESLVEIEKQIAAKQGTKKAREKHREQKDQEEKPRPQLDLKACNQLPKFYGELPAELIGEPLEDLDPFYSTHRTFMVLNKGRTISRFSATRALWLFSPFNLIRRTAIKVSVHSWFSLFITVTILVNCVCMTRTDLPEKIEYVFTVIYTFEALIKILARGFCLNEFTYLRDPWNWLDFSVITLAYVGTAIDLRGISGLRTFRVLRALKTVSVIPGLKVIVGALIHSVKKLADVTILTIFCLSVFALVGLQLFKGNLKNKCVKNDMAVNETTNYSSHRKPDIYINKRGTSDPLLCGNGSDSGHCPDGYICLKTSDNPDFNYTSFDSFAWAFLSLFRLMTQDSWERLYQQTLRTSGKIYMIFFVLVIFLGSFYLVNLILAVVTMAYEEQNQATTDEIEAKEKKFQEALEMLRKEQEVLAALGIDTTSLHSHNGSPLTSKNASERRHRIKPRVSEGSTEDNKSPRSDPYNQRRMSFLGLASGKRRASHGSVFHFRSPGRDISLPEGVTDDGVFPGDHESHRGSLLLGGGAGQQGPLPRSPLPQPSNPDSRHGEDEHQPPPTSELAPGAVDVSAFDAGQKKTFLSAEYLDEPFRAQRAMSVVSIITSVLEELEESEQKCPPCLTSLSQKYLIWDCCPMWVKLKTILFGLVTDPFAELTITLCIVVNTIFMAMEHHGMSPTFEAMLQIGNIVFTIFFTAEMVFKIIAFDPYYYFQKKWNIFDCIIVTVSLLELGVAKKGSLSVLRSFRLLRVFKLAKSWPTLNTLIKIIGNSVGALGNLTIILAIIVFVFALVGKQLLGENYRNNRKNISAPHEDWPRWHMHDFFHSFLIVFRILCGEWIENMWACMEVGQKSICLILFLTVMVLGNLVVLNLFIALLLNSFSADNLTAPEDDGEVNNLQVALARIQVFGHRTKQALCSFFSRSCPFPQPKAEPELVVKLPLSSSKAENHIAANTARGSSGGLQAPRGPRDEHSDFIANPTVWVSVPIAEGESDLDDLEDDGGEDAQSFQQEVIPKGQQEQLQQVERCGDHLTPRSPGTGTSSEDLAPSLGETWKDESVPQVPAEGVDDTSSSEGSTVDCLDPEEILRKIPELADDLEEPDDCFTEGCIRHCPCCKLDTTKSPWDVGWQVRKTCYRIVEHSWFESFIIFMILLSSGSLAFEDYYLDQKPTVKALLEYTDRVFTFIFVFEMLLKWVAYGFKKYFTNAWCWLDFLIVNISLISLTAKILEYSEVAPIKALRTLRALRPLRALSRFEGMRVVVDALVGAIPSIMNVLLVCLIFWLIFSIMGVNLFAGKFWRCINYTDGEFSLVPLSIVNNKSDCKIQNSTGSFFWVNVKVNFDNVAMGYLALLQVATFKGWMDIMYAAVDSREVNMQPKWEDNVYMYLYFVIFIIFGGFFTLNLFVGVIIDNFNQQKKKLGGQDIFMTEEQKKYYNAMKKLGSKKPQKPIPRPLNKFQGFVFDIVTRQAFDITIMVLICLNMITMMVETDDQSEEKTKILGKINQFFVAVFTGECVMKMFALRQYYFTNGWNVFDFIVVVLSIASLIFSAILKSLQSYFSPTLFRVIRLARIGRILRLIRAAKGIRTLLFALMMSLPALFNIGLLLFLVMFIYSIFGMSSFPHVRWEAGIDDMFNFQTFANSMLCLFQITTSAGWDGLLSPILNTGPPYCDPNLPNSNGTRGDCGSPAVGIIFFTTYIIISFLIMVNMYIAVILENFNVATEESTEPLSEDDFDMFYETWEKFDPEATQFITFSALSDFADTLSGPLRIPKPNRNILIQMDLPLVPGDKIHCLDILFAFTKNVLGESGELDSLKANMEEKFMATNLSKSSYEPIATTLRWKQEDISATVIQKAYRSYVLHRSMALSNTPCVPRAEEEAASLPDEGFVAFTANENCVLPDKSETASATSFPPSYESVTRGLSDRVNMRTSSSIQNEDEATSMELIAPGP

IC50 [nM] | Structure (SMILES)
≤ 100 | CC1(Cn2nc(C3CC34CC4)c(C(F)(F)F)c2C(=O)Nc2ccnc(S(C)(=N)=O)c2)CC(F)(F)C1 (single isomer, unassigned) [Example 64b, 1-((3,3-difluoro-1-methylcyclobutyl)methyl)-N-(2-(S-methylsulfonimidoyl)pyridin-4-yl)-3-(spiro[2.2]pentan-1-yl)-4-(trifluoromethyl)-1H-pyrazole-5-carboxamide]
≤ 100 | CS(=N)(=O)c1cc(NC(=O)c2c(C(F)(F)F)c(C3CC3)nn2CC23CC2CC(F)(F)C3)ccn1 (single isomer, unassigned) [Example 95b, 3-Cyclopropyl-1-((3,3-difluorobicyclo[3.1.0]hexan-1-yl)methyl)-N-(2-(S-methylsulfonimidoyl)pyridin-4-yl)-4-(trifluoromethyl)-1H-pyrazole-5-carboxamide]
≤ 100 | CC1(Cn2nc(C(C)(F)F)c(C(F)(F)F)c2C(=O)Nc2ccnc(S(C)(=N)=O)c2)CC(F)(F)C1 (single isomer, unassigned) [Example 75a, 1-((3,3-difluoro-1-methylcyclobutyl)methyl)-3-(1,1-difluoroethyl)-N-(2-(S-methylsulfonimidoyl)pyridin-4-yl)-4-(trifluoromethyl)-1H-pyrazole-5-carboxamide]
≤ 100 | CC1(Cn2nc(C3(F)CC3)c(C(F)(F)F)c2C(=O)Nc2ccnc(S(C)(=N)=O)c2)CC(F)(F)C1 (single isomer, unassigned) [Example 70b, 1-((3,3-Difluoro-1-methylcyclobutyl)methyl)-3-(1-fluorocyclopropyl)-N-(2-(S-methylsulfonimidoyl)pyridin-4-yl)-4-(trifluoromethyl)-1H-pyrazole-5-carboxamide]
≤ 100 | C[S@@](=N)(=O)c1cc(NC(=O)c2c(C(F)(F)F)c(C3CC3)nn2C[C@@H]2C(F)(F)C23CC3)ccn1 (single isomer, unassigned) [Example 79c, 3-cyclopropyl-1-((2,2-difluorospiro[2.2]pentan-1-yl)methyl)-N-(2-(S-methylsulfonimidoyl)pyridin-4-yl)-4-(trifluoromethyl)-1H-pyrazole-5-carboxamide]
≤ 100 | C[C@]1(Cn2nc(C3CC3)c(C(F)(F)F)c2C(=O)Nc2ccnc([S@@](C)(=N)=O)c2)CC(F)(F)C12CC2 (single isomer, unassigned) [Example 92b, 3-cyclopropyl-1-((6,6-difluoro-4-methylspiro[2.3]hexan-4-yl)methyl)-N-(2-(S-methylsulfonimidoyl)pyridin-4-yl)-4-(trifluoromethyl)-1H-pyrazole-5-carboxamide]
≤ 100 | CC1(Cn2nc(C3(C(F)(F)F)CC3)c(C(F)(F)F)c2C(=O)Nc2ccnc(S(C)(=N)=O)c2)CC(F)(F)C1 (single isomer, unassigned) [Example 144a, 1-((3,3-Difluoro-1-methylcyclobutyl)methyl)-N-(2-(S-methylsulfonimidoyl)pyridin-4-yl)-4-(trifluoromethyl)-3-(1-(trifluoromethyl)cyclopropyl)-1H-pyrazole-5-carboxamide]
≤ 100 | CS(=N)(=O)c1cc(NC(=O)c2c(C(F)(F)F)c(C3CC3)nn2C[C@@H]2CCC(F)(F)C2)ccn1 (single isomer, unassigned) [Example 17c]
≤ 100 | CS(=N)(=O)c1cc(NC(=O)c2c(C(F)(F)F)c(C3CC3)nn2CC2C(F)(F)C23CCC3)ccn1 (single isomer, unassigned) [Example 136b, 3-Cyclopropyl-1-((2,2-difluorospiro[2.3]hexan-1-yl)methyl)-N-(2-(S-methylsulfonimidoyl)pyridin-4-yl)-4-(trifluoromethyl)-1H-pyrazole-5-carboxamide]
≤ 100 | C[S@@](=N)(=O)c1cc(NC(=O)c2c(C(F)(F)F)c(C3CC3)nn2C[C@H]2CC23CC3)ccn1 (single isomer, unassigned) [Example 78c, 3-cyclopropyl-N-(2-(S-methylsulfonimidoyl)pyridin-4-yl)-1-(spiro[2.2]pentan-1-ylmethyl)-4-(trifluoromethyl)-1H-pyrazole-5-carboxamide]
100 to 1000 | COC1(c2nn(CC3(C)CC(F)(F)C3)c(C(=O)Nc3ccnc(S(C)(=N)=O)c3)c2C(F)(F)F)CC1 (single isomer, unassigned) [Example 71a, 1-((3,3-difluoro-1-methylcyclobutyl)methyl)-3-(1-methoxycyclopropyl)-N-(2-(S-methylsulfonimidoyl)pyridin-4-yl)-4-(trifluoromethyl)-1H-pyrazole-5-carboxamide]
≤ 100 | Cc1cc(NC(=O)c2c(C(F)(F)F)c(C3CC3)nn2CC2(C)CC(F)(F)C2)cc(S(C)(=N)=O)n1 (single isomer, unassigned) [Example 50a, 3-cyclopropyl-1-((3,3-difluoro-1-methylcyclobutyl)methyl)-N-(2-methyl-6-(S-methylsulfonimidoyl)pyridin-4-yl)-4-(trifluoromethyl)-1H-pyrazole-5-carboxamide]
≤ 100 | CS(=N)(=O)c1cc(NC(=O)c2c(C(F)(F)F)c(C3CC3)nn2CC23CC(C(F)(F)F)(C2)C3)ccn1 (single isomer, unassigned) [Example 23b, 3-cyclopropyl-N-(2-(S-methylsulfonimidoyl)pyridin-4-yl)-4-(trifluoromethyl)-1-((3-(trifluoromethyl)bicyclo[1.1.1]pentan-1-yl)methyl)-1H-pyrazole-5-carboxamide]
≤ 100 | CS(=N)(=O)c1cc(NC(=O)c2c(C(F)(F)F)c(C3CC3)nn2CC23CC2CC(F)(F)C3)ccn1 (single isomer, unassigned) [Example 95c, 3-Cyclopropyl-1-((3,3-difluorobicyclo[3.1.0]hexan-1-yl)methyl)-N-(2-(S-methylsulfonimidoyl)pyridin-4-yl)-4-(trifluoromethyl)-1H-pyrazole-5-carboxamide]
≤ 100 | CC1(Cn2nc(C(C)(C)F)c(C(F)(F)F)c2C(=O)Nc2ccnc(S(C)(=N)=O)c2)CC(F)(F)C1 (single isomer, unassigned) [Example 148a, 1-((3,3-Difluoro-1-methylcyclobutyl)methyl)-3-(2-fluoropropan-2-yl)-N-(2-(S-methylsulfonimidoyl)pyridin-4-yl)-4-(trifluoromethyl)-1H-pyrazole-5-carboxamide]
≤ 100 | CC1(Cn2nc(C3(F)CC3)c(C(F)F)c2C(=O)Nc2ccc(F)c(S(C)(=N)=O)c2)CC(F)(F)C1 (single isomer, unassigned) [Example 133a, 1-((3,3-Difluoro-1-methylcyclobutyl)methyl)-4-(difluoromethyl)-N-(4-fluoro-3-(S-methylsulfonimidoyl)phenyl)-3-(1-fluorocyclopropyl)-1H-pyrazole-5-carboxamide]
≤ 100 | C[C@@]1(Cn2nc(C3CC3)c(C(F)(F)F)c2C(=O)Nc2ccnc([S@@](C)(=N)=O)c2)CC(F)(F)C12CC2 (single isomer, unassigned) [Example 92d, 3-cyclopropyl-1-((6,6-difluoro-4-methylspiro[2.3]hexan-4-yl)methyl)-N-(2-(S-methylsulfonimidoyl)pyridin-4-yl)-4-(trifluoromethyl)-1H-pyrazole-5-carboxamide]
≤ 100 | Cc1c(C(C)(F)F)nn(CC2(C)CC(F)(F)C2)c1C(=O)Nc1ccnc(S(C)(=N)=O)c1 (single isomer, unassigned) [Example 5b, 1-((3,3-difluoro-1-methylcyclobutyl)methyl)-3-(1,1-difluoroethyl)-4-methyl-N-(2-(S-methylsulfonimidoyl)pyridin-4-yl)-1H-pyrazole-5-carboxamide]
